Laboratory results: patent publication US12492173B2, “Herbicidal substituted N-tetrazolyl aryl carboxamides” (Bayer Aktiengesellschaft, priority 2019, dated 2025)

Assays:
Format in all cases: in vivo
[1] = system: Amaranthus retroflexus; test: Post-emergence herbicidal action, AMARE; set-up: key: % herbicidal action vs untreated; 100 = plants died, 0 = like control
In short: (§1)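 Percent herbicidal effect was judged by eye against untreated controls around 3 weeks after foliar treatment, where 100% meant dead plants. Spraying took place at the one-leaf stage using wettable powder or emulsion concentrate diluted in water (600 to 800 l/ha) with added wetting agent at 0.2%.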

[2] = system: Viola tricolor; test: Pre-emergence herbicidal action, VIOTR; set-up: key to Herbicidal action against VIOTR: % activity: 100 = plants have died, 0 = like control plants; settings: for herbicidal activity VIOTR / herbicidal action VIOTR: dosage 320 g/ha; for herbicidal activity VIOTR: scored visually after 3 weeks vs untreated controls (100% = plants have died)
In short: (§2)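 Sown pots (sandy loam) sprayed pre-emergence → greenhouse → visual rating at 3 weeks; % activity vs untreated control, 100% = dead.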

[3] = system: Setaria viridis; test: Pre-emergence herbicidal action, SETVI; set-up: key to Herbicidal action against SETVI: % activity: 100 = plants have died, 0 = like control plants; settings: for herbicidal activity SETVI / herbicidal action SETVI: dosage 320 g/ha; for herbicidal activity SETVI: scored visually after 3 weeks vs untreated controls (100% = plants have died); for Herbicidal action against SETVI: comparative experiment
In short: as §2

[4] = system: Pharbitis purpurea; test: Post-emergence herbicidal action, PHBPU
In short: as §1

[5] = system: Echinochloa crus-galli; test: Pre-emergence herbicidal action, ECHCG; set-up: key to Herbicidal action against ECHCG: % activity: 100 = plants have died, 0 = like control plants; settings: for herbicidal activity ECHCG / herbicidal action ECHCG: dosage 320 g/ha; for herbicidal activity ECHCG: scored visually after 3 weeks vs untreated controls (100% = plants have died); for Herbicidal action against ECHCG: comparative experiment
In short: as §2

[6] = system: Viola tricolor; test: Post-emergence herbicidal action, VIOTR; set-up: key: % herbicidal action vs untreated; 100 = plants died, 0 = like control; settings: for Herbicidal action against VIOTR: comparative experiment
In short: as §1

[7] = comparative experiment, post-emergence, 20 g of a.i./ha

Row | Structure (SMILES) | herbicidal activity VIOTR [2] | herbicidal activity SETVI [3] | herbicidal activity ECHCG [5] | herbicidal action AMARE ([1]; Dosage 80 g/ha) | herbicidal action PHBPU ([4]; Dosage 80 g/ha) | herbicidal action VIOTR ([6]; Dosage 80 g/ha) | herbicidal action VIOTR [2] | herbicidal action ECHCG [5] | further results
1 | CCn1nnnc1NC(=O)c1ccc(C(F)(F)F)c(C[S+]([O-])CC)c1Cl (stereo not shown) [Example 2-300] | 100% | 100% | 100% | – | – | – | – | – | herbicidal action AMARE ([1]; post-emergence, dosage 80 g/ha): 100%; herbicidal action PHBPU ([4]; post-emergence, dosage 80 g/ha): 90%; herbicidal action VIOTR ([6]; post-emergence, dosage 80 g/ha): 100%
2 | CCCn1nnnc1NC(=O)c1ccc(C(F)(F)F)c(CS(C)(=O)=O)c1Cl [Example 3-298] | 100% | 100% | 100% | 100 | 100 | 100 | – | – | –
3 | Cc1c(C(=O)Nc2nnnn2C)ccc(C(F)F)c1C[S+](C)[O-] (stereo not shown) [Example 1-108] | – | – | – | 100 | 90 | 100 | 100% | 100% | herbicidal action SETVI [3]: 100%
4 | Cn1nnnc1NC(=O)c1ccc(C(F)(F)F)c(CSCC(F)(F)F)c1Cl [Example 1-311] | 100% | 100% | 100% | 100 | 100 | 100 | – | – | –
5 | CCSCc1c(C(F)(F)F)ccc(C(=O)Nc2nnnn2CC)c1C [Example 2-86] | – | – | – | – | – | – | 100% | 100% | herbicidal action AMARE ([1]; post-emergence, dosage 80 g/ha): 80%; herbicidal action SETVI [3]: 100%; herbicidal action PHBPU ([4]; post-emergence, dosage 80 g/ha): 90%; herbicidal action VIOTR ([6]; post-emergence, dosage 80 g/ha): 100%
6 | COc1c(C(=O)Nc2nnnn2C)ccc(Cl)c1CSC [Example 1-570] | – | – | – | – | – | – | 80% | 90% | Herbicidal action against AMARE ([1]; post-emergence, dosage 80 g/ha): 90; Herbicidal action against VIOTR ([2]; comparative experiment, 20 g of a.i./ha): 70; Herbicidal action against PHBPU ([4]; post-emergence, dosage 80 g/ha): 90; Herbicidal action against VIOTR ([6]; post-emergence, 5 g of a.i./ha): 60
7 | CCn1nnnc1NC(=O)c1ccc(C(F)(F)F)c(C[S+]([O-])CC)c1Br (stereo not shown) [Example 2-384] | 100% | 100% | 100% | – | – | – | – | – | herbicidal action AMARE ([1]; post-emergence, dosage 80 g/ha): 90%; herbicidal action PHBPU ([4]; post-emergence, dosage 80 g/ha): 90%; herbicidal action VIOTR ([6]; post-emergence, dosage 80 g/ha): 100%
8 | CSCc1c(C)ccc(C(=O)Nc2nnnn2C)c1Cl [Example 1-287] | – | – | – | 100 | – | 100 | 90% | 80% | herbicidal action SETVI [3]: 90%
9 | CCn1nnnc1NC(=O)c1ccc(C(F)(F)F)c(CS(=O)(=O)CC)c1Cl [Example 2-301] | – | – | – | 80 | 90 | 100 | 100% | 100% | herbicidal action SETVI [3]: 100%
10 | CCSCc1c(C(F)F)ccc(C(=O)Nc2nnnn2C)c1Cl [Example 1-323] | 100% | 100% | 100% | – | – | – | – | – | herbicidal action AMARE ([1]; post-emergence, dosage 80 g/ha): 90%; herbicidal action PHBPU ([4]; post-emergence, dosage 80 g/ha): 100%; herbicidal action VIOTR ([6]; post-emergence, dosage 80 g/ha): 100%
11 | CCn1nnnc1NC(=O)c1ccc(C(F)F)c(C[S+]([O-])CC)c1Cl (stereo not shown) [Example 2-324] | 100% | 100% | 100% | – | – | – | – | – | herbicidal action AMARE ([1]; post-emergence, dosage 80 g/ha): 100%; herbicidal action PHBPU ([4]; post-emergence, dosage 80 g/ha): 100%; herbicidal action VIOTR ([6]; post-emergence, dosage 80 g/ha): 100%
12 | CC[S+]([O-])Cc1c(C(F)(F)F)ccc(C(=O)Nc2nnnn2C)c1Cl (racemic) [Example 1-300] | 100% | 100% | 100% | – | – | – | – | – | herbicidal action AMARE ([1]; post-emergence, dosage 80 g/ha): 100%; herbicidal action PHBPU ([4]; post-emergence, dosage 80 g/ha): 90%; herbicidal action VIOTR ([6]; post-emergence, dosage 80 g/ha): 100%
13 | Cn1nnnc1NC(=O)c1ccc(C(F)F)c(CS(C)(=O)=O)c1Cl [Example 1-322] | 100% | 100% | 100% | – | – | – | – | – | herbicidal action AMARE ([1]; post-emergence, dosage 80 g/ha): 80%; herbicidal action PHBPU ([4]; post-emergence, dosage 80 g/ha): 80%; herbicidal action VIOTR ([6]; post-emergence, dosage 80 g/ha): 100%
14 | CCS(=O)(=O)Cc1c(C(F)F)ccc(C(=O)Nc2nnnn2C)c1Cl [Example 1-325] | 100% | 100% | 100% | – | 100 | 100 | – | – | –
15 | CCCn1nnnc1NC(=O)c1ccc(S(C)(=O)=O)c(CSC)c1C [Example 3-37] | – | – | – | 100 | 80 | 100 | 100% | – | –
16 | CCCn1nnnc1NC(=O)c1ccc(C(F)(F)F)c(CS(C)(=O)=O)c1Br [Example 3-382] | – | – | – | 100 | 100 | 90 | 90% | 90% | –
17 | CCCn1nnnc1NC(=O)c1ccc(C(F)F)c(CS(=O)(=O)CC)c1Cl [Example 3-325] | 100% | 100% | 100% | – | 90 | 100 | – | – | –
18 | CCCn1nnnc1NC(=O)c1ccc(C(F)(F)F)c(CSCC)c1C [Example 3-86] | – | – | – | – | 90 | 100 | 100% | 100% | herbicidal action SETVI [3]: 90%
19 | CCS(=O)(=O)c1c(C(F)(F)F)ccc(C(=O)Nc2nnnn2C)c1Br [Example V-13, 2-bromo-3-(ethylsulfonyl)-N-(1-methyl-1-1H-tetrazol-5-yl)-4-(trifluoromethyl)benzamide, reference compound] | – | – | – | – | – | – | – | – | Herbicidal action against AMARE [1, 7]: 0; Herbicidal action against SETVI ([3]; 80 g of a.i./ha): 0; Herbicidal action against PHBPU [4, 7]: 0; Herbicidal action against ECHCG ([5]; 80 g of a.i./ha): 0; Herbicidal action against VIOTR ([6]; post-emergence, 20 g of a.i./ha): 0
20 | Cc1ccc(C(=O)Nc2nnnn2C)c(Cl)c1C[S+](C)[O-] (racemic) [Example 1-288] | – | – | – | 100 | 90 | 100 | 90% | 90% | –
21 | CCCn1nnnc1NC(=O)c1ccc(C(F)F)c(CS(C)(=O)=O)c1Cl [Example 3-322] | 100% | 100% | 100% | 90 | 90 | – | – | – | –
22 | COc1c(C(=O)Nc2nnnn2C)ccc(C(F)(F)F)c1C[S+](C)[O-] (stereo not shown) [Example 1-135] | – | – | – | 100 | 90 | 90 | 90% | 100% | –
23 | Cn1nnnc1NC(=O)c1ccc(I)c(CS(C)(=O)=O)c1Cl [Example 1-364] | 100% | 100% | 100% | 100 | – | 100 | – | – | Herbicidal action against SETVI ([3]; 20 g of a.i./ha): 100; Herbicidal action against ECHCG ([5]; 20 g of a.i./ha): 90
24 | CCCn1nnnc1NC(=O)c1ccc(C(F)(F)F)c(CS(=O)(=O)CC)c1Cl [Example 3-301] | – | – | – | – | 100 | 100 | 100% | 100% | herbicidal action SETVI [3]: 100%
